# Values joined by “and” are separate entries in the source; they are usually repeats but may differ in a detail not shown here. Equal values may be shown once.
# Columns and labels:
# porcine oocytes [1] = experiment: Parthenogenetic activation of oocytes (cleavage and blastocyst development)
# Method: After the first polar body was extruded, mature oocytes with uniform cytoplasm were selected for parthenogenetic activation. The oocytes were washed three times with a pre-heated electro-activation solution, and then the oocytes were placed between electrodes filled with the activation solution, the electro-activation solution was 0.3 M mannitol, 0.05 mM CaCl2, 0.1 mM MgCl2, and 0.4% (m/v) bovine serum albumin dissolved in water. An electric fusion meter (Fujihira Industry Co. Ltd, Tokyo, Japan) was used for electrical activation, the electric field intensity was 65 V/mm, the DC pulse duration was 80 μs, and the number of pulses was 1. The activated oocytes were cultured in PZM-3 containing 5 μg/mL cytochalasin B and 10 μg/mL cycloheximide at 38.5° C., 5% CO2 for 4 h. Then the oocytes were washed and cultured in PZM-3 (day 0). The number of cleavage embryos was counted on day 2 and blastocyst formation was recorded on day 7.
# porcine oocytes [2] = experiment: Oocyte mitochondrial temperature detection (Mito Thermo Yellow probe fluorescence); type: cell-based
# Method: (§1) 100 nM Mito Thermo Yellow dye was added in TL-HEPES-0.3% BSA solution and preheated for 15 min at 37° C. in an incubator containing 5% CO2, the oocytes were moved into the preheated dye solution in the incubator for 15 min and then washed three times with TL-HEPES-0.3% BSA for 10 min each time, the fluorescence intensity was detected by laser confocal microscopy, and the changes of mitochondrial temperature were analyzed.
# Metformin can effectively reduce mitochondrial heat production.
# [3] = system: vitrified porcine oocytes; experiment: Survival rate detection of vitrified oocytes after thawing (FDA staining); type: cell-based; settings: freezing group 71.85%
# Method: The room temperature was adjusted to 25±1° C. so that the test apparatus and reagents were fully balanced, the experiment was carried out on a 37° C. thermostat, the oocytes were transferred into 20% EG solution for 3 min, and then transferred into the vitrification solution EDFS40 for 30-40 s, the oocytes were then placed on the cryocarrier Cryotop. […] When thawing the oocytes, the Cryotop was taken out from liquid nitrogen, and the oocytes were immediately immersed in PBS containing 1M sucrose (containing 20% FBS) on a thermostatic table (37° C.) for 1 min, and then transferred to PBS containing 0.5M and 0.25M sucrose (containing 20% FBS) for 3 min, and then placed in PBS containing 20% FBS for recovery for 5 min, and then washed three times with mature medium and placed in mature medium for recovery for 2 hours. • (1) Survival Rate Detection of Oocytes after Thawing
# The survival rate of oocytes was detected by FDA (fluorescein diacetate) staining. The collected oocytes were incubated in TL-HEPES-0.3% BSA solution containing 2.5 μg/mL FDA for 1 min and then washed three times with TL-HEPES-0.3% BSA solution, the oocytes were placed on a petri dish and observed using a fluorescence microscope, the oocytes with green fluorescence were considered to be alive.
# vitrified oocytes [4] = experiment: Ultrastructural observation of lipid droplets in oocytes (TEM); type: cell-based, porcine; settings: metformin pretreatment
# Method: The oocytes were washed with DPBS and fixed overnight at 4° C. in a 0.1M dimethylarsenate buffer containing 2.5% (m/v) glutaraldehyde. After washing with DPBS, oocytes were fixed with 1% osmic acid, then washed with DPBS, and dehydrated in a gradient of 30%, 50%, 70%, 80%, 90%, and 100% acetone. The epoxy resin SPURR was used for embedding-polymerization, and the LKB-V slicing machine (ultra-thin slice thickness 50 nm (diamond knife)) was used for slicing, and then the double staining of uranium acetate-lead citrate was carried out on the copper mesh of the electron microscope, the copper mesh containing the sample was dried in a glass dish overnight, and the image was collected using a transmission electron microscope (TEM) at 80 kv (HITACHI, New Bio-TEM H-7500, Japan).
# porcine oocytes [5] = experiment: Oocyte membrane fluidity detection by FRAP; type: cell-based; settings: metformin pretreatment; P<0.05
# Method: The membrane fluidity of oocytes was detected by fluorescence recovery after photobleaching (FRAP). The oocytes were first placed in TL-HEPES-0.3% BSA solution containing cell membrane fluorescent probe Dil, and incubated at 37° C. in the incubator containing 5% CO2 for 10 min. After incubation, the oocytes were washed three times within TL-HEPES-0.3% BSA solution, and then the oocytes were placed in a confocal dish. FRAP experiments were performed on a confocal microscope. Firstly, a bleaching area was selected, and three fluorescence images were collected before bleaching, with an interval of 5 s for each image. The bleaching fluorescence intensity was 100%, and the bleaching time was 7.93 s. Recovery time was 3 min after bleaching, and fluorescence images were collected at 5 s intervals. The fluorescence intensity of the bleaching area was statistically analyzed and the data were normalized.
# vitrified oocytes [6] = experiment: Mitochondrial temperature of vitrified oocytes after thawing (MTY probe); type: cell-based, porcine; settings: metformin pretreatment before freezing; P<0.01
# Method: as §1
# The room temperature was adjusted to 25±1° C. so that the test apparatus and reagents were fully balanced, the experiment was carried out on a 37° C. thermostat, the oocytes were transferred into 20% EG solution for 3 min, and then transferred into the vitrification solution EDFS40 for 30-40 s, the oocytes were then placed on the cryocarrier Cryotop. […]
# The effect of metformin pretreatment on the mitochondrial temperature of vitrified oocytes was further analyzed.
# [7] = rotenone-treated group vs control group, after parthenogenetic activation, P<0.01
# [8] = 1 μM UK5099 vs control group, after parthenogenetic activation
# [9] = 2 μM UK5099 vs control group, after parthenogenetic activation
# [10] = UK5099 0.5 μM, 1 μM, 2 μM, 4 μM
smiles,measurement,setting,value
C=C(C)[C@H]1Cc2c(ccc3c2O[C@@H]2COc4cc(OC)c(OC)cc4[C@@H]2C3=O)O1 [rotenone],blastocyst development rate,porcine oocytes [1]; [7],significantly decreased
same,cleavage rate,porcine oocytes [1]; [7],significantly decreased
same,cytotoxicity,porcine oocytes [1]; summary statement on rotenone,greater cytotoxicity
same,mitochondrial temperature,"porcine oocytes [2]; 1 μM rotenone treatment for 1 h, P<0.01",significantly reduced
N#C/C(=C\c1cn(-c2ccccc2)c2ccccc12)C(=O)O [UK5099],blastocyst rate,porcine oocytes [1]; [8],not significantly different
same,cleavage rate,porcine oocytes [1]; [8],not significantly different
same,blastocyst rate,porcine oocytes [1]; [9],not significantly different
same,cleavage rate,porcine oocytes [1]; [9],not significantly different
same,"blastocyst rate, trend with concentration",porcine oocytes [1]; [10],decreased with the increase of UK5099 concentration
same,"cleavage rate, trend with concentration",porcine oocytes [1]; [10],decreased with the increase of UK5099 concentration
same,Survival rate (%),"[3]; UK5099 pretreatment before vitrification, P>0.05",67.50% and 67.50^b(135/200) %
same,mitochondrial temperature,"porcine oocytes [2]; 1 μM UK5099 treatment for 1 h, P<0.05",significantly reduced
same,mitochondrial temperature,"porcine oocytes [2]; 2 μM UK5099 treatment for 1 h, P<0.01",significantly reduced
CC[C@H]1/C=C/C=C/C[C@@H](C)[C@H](O)[C@@](C)(O)C(=O)[C@@H](C)[C@H](O)[C@@H](C)C(=O)[C@@H](C)[C@H](O)[C@@H](C)/C=C/C(=O)O[C@@H]2[C@H](C)[C@H](CC1)O[C@]1(CC[C@H](C)[C@H](C[C@@H](C)O)O1)[C@H]2C [oligomycin],blastocyst development rate,porcine oocytes [1]; 0.5 μM oligomycin vs control group,significantly lower
same,blastocyst development,"porcine oocytes [1]; 1.5 μM oligomycin vs control group, P<0.01",significantly lower
same,blastocyst development,"porcine oocytes [1]; 2.5 μM oligomycin vs control group, P<0.01",significantly lower
same,cleavage rate,"porcine oocytes [1]; different concentrations of oligomycin vs control group, parthenogenetic activation, P<0.01",significantly lower
same,Survival rate (%),"[3]; oligomycin pretreatment before vitrification, P<0.05",29.79%
same,Survival rate (%),"[3]; oligomycin pretreatment before vitrification, P<0.05, listed as Oligomycin",29.79^c(56/188) %
same,mitochondrial temperature,"porcine oocytes [2]; 0.5 μM oligomycin treatment for 1 h, P<0.01",significantly reduce
same,mitochondrial temperature,"porcine oocytes [2]; 1.5 μM oligomycin treatment for 1 h, P<0.01",significantly reduce
same,mitochondrial temperature,"porcine oocytes [2]; 2.5 μM oligomycin treatment for 1 h, P<0.01",significantly reduce
CN(C)C(=N)N=C(N)N [metformin],size of lipid droplets in oocytes,vitrified oocytes [4],close to that of the fresh group
same,cleavage rate,"porcine oocytes [1]; metformin pretreatment group vs control group, after parthenogenetic activation, day 2",no significant difference
same,blastocyst development rate,"porcine oocytes [1]; metformin pretreatment group vs control group, after parthenogenetic activation, day 7",no significant difference
same,Survival rate (%),"[3]; pretreated with 400 μM metformin for 1 h before vitrification, P<0.05",81.36%
same,Survival rate (%),"[3]; pretreated with 400 μM metformin for 1 h before vitrification, P<0.05, listed as Metformin",81.36^c(179/330) %
same,plasma membrane fluidity,porcine oocytes [5],significantly decreased
same,mitochondrial temperature of vitrified oocytes after thawing,vitrified oocytes [6],significantly higher than that of the conventional freezing group
same,mitochondrial temperature,"porcine oocytes [2]; 400 μM metformin treatment for 1 h, P<0.05",significantly reduce mitochondrial temperature
